From ChEMBL document CHEMBL6074671, “Discovery of Pyridine-2-Carboxamides Derivatives as Potent and Selective HPK1 Inhibitors for the Treatment of Cancer” (J Med Chem, 2024) come the findings set out here.

As usually defined, the IC50 is the point on the concentration scale where inhibition reaches its midpoint. A word on the EC50: it is the concentration needed to bring the measured effect to its halfway point. As a reminder, the clearance is the rate of elimination divided by the concentration. A high value points to a high capacity for elimination. As usually defined, the Vd is the apparent volume that relates the amount in the body to the concentration in plasma or blood. A high value points to extensive tissue distribution. One may read the bioavailability as the share of a dose that reaches the circulation, judged against a reference dose that is usually intravenous. Read a low bioavailability as little systemic uptake. Usually half-life stands for how long it takes for the measured level to halve. A low value points to fast loss.

Series [1] in a line: Inhibition of pSLP76 in human PBMC cells incubated for 4 hrs by HTRF method. It counts as cell-based.
Series [2] in a line: Effect on IL-2 secretion in human T cells by ELISA method. It counts as functional, cell-based. The settings on record: T-cell. (In general: In an ELISA, binding on a coated surface is turned into a signal by an enzyme label.)
Series [3] is described as follows: Effect on IFN-gamma secretion in human T cells by ELISA method. It counts as functional, cell-based. The following applies: T-cell.
In series [4] the target is T1, Mitogen-activated protein kinase kinase kinase kinase 1 (Homo sapiens, UniProt Q92918). The series is described as follows: Inhibition of human recombinant wild type N-terminal HPK1 (1 to 346 residues) infected in insect Sf21 cells using fluorescein-PKC as substrate preincubated for 10 mins followed by substrate addition and measured after 90 mins by microplate reader based analysis. In kind it is single protein.
T1 sequence (Q92918 whole entry, the tested form may be a part): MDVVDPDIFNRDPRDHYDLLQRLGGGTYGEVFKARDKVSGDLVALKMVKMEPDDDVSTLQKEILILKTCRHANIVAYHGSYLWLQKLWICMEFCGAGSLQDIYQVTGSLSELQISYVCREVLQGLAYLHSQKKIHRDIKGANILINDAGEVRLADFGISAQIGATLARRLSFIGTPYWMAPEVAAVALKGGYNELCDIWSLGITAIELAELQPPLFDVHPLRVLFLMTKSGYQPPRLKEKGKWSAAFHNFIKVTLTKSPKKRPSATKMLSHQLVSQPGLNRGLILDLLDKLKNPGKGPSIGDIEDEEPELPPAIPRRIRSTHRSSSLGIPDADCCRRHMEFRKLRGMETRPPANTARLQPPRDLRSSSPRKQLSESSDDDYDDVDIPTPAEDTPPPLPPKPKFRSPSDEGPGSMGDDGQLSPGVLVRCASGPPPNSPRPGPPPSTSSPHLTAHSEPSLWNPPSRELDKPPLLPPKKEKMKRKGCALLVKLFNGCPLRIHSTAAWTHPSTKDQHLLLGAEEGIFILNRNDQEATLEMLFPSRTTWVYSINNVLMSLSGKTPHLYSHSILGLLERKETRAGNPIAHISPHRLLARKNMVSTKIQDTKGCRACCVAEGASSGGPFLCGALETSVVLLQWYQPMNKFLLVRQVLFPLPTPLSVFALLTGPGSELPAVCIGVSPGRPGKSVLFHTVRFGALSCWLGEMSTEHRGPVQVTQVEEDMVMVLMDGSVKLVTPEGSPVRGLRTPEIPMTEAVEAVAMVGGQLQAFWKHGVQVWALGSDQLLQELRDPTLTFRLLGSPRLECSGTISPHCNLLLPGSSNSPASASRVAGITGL

Series [5] deals with T2, Mitogen-activated protein kinase kinase kinase kinase 3 (Homo sapiens, UniProt Q8IVH8).
T2 sequence (Q8IVH8 whole entry): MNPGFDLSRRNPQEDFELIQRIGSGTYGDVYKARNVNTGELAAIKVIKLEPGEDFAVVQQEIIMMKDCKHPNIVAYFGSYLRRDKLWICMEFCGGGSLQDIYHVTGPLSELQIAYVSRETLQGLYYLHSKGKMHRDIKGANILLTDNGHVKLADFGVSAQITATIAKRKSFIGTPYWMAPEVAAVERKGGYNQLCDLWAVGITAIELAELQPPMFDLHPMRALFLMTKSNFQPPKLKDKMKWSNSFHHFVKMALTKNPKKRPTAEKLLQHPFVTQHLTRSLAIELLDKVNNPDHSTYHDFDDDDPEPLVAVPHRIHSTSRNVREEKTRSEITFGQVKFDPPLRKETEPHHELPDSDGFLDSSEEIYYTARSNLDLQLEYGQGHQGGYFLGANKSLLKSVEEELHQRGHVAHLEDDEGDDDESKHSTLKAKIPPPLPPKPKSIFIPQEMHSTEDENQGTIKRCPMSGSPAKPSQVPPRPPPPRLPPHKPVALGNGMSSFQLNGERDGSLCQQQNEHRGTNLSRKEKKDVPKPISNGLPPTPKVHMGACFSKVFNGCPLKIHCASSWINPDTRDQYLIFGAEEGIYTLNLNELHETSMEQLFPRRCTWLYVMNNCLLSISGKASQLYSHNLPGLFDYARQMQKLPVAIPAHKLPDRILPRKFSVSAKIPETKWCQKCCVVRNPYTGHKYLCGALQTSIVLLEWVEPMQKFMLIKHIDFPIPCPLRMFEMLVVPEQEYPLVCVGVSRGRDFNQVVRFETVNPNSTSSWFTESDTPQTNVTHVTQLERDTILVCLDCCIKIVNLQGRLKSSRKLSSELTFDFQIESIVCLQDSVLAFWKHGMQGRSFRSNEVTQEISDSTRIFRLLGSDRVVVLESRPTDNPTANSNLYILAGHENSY
The series is described as follows: Inhibition of GLK (unknown origin).

Series [6] deals with T1, Mitogen-activated protein kinase kinase kinase kinase 1. The series is described as follows: Inhibition of HPK1 in human PBMC cells assessed as IL-2 level pretreated for 4 hrs followed by anti-CD3/CD28 stimulation for 20 mins by HTRF method. In kind it is cell-based.
A short description of series [7]: in vivo. The settings on record: Beagle, dog, plasma, iv, 1 mg/kg.
Description: Clearance in Beagle dog plasma at 1 mg/kg, iv
The nature of series [8]: Dose normalized AUC (0 to 24 hrs) in Sprague-Dawley rat at 10 mg/kg, po. The following applies: in vivo. In kind it is ADME, organism-based.
A short description of series [9]: in vivo. The following applies: Beagle, dog, iv, 1 mg/kg.
Description: Volume of distribution in Beagle dog at 1 mg/kg, iv
Series [10] in a line: Oral bioavailability n Sprague-Dawley rat at 10 mg/kg. In kind it is ADME, organism-based. The following applies: in vivo.
Series [11] is described as follows: Half life in Sprague-Dawley rat at 10 mg/kg, po. It counts as ADME, organism-based. The settings on record: in vivo.
Series [12] can be described thus: Dose normalized AUC (0 to 24 hrs) in Balb/c mouse at 10 mg/kg, po. In kind it is ADME, organism-based. The following applies: in vivo.
The nature of series [13]: Half life in Balb/c mouse at 10 mg/kg, po. In kind it is ADME, organism-based. The following applies: in vivo.
Series [14] in a line: in vivo. The settings on record: Balb/c, mouse, iv, 1 mg/kg.
Description: Volume of distribution in Balb/c mouse at 1 mg/kg, iv
The nature of series [15]: in vivo. The settings on record: Beagle, dog, po, 2 mg/kg.
The conditions of series [16]: dog, in vivo, po, 2 mg/kg.
Series [17] can be described thus: in vivo. The following applies: Sprague-Dawley, rat, plasma, iv, 1 mg/kg.
Description: Clearance in Sprague-Dawley rat plasma at 1 mg/kg, iv
A short description of series [18]: in vivo. The following applies: Beagle, dog, po, 2 mg/kg. The source holds these as a separate data set.
Description: Half life in Beagle dog at 2 mg/kg, po
The nature of series [19]: in vivo. The following applies: Sprague-Dawley, rat, iv, 1 mg/kg.
Description: Volume of distribution in Sprague-Dawley rat at 1 mg/kg, iv
A short description of series [20]: in vivo. The settings on record: Balb/c, mouse, plasma, iv, 1 mg/kg.
Description: Clearance in Balb/c mouse plasma at 1 mg/kg, iv
Series [21] is described as follows: Oral bioavailability in Balb/c mouse at 10 mg/kg. In kind it is ADME, organism-based. The following applies: in vivo.
Series [22] is described as follows: Half life in Balb/c mouse administered as po dose. In kind it is ADME, organism-based. The settings on record: in vivo.
Series [23] can be described thus: Oral bioavailability in Balb/c mouse. In kind it is ADME, organism-based. The following applies: in vivo.
A short description of series [24]: Dose normalized AUC (0 to 24 hrs) in Balb/c mouse administered as po dose. In kind it is ADME, organism-based. The settings on record: in vivo.
Series [25] is described as follows: Volume of distribution in Balb/c mouse administered as iv dose. In kind it is ADME, organism-based. The settings on record: in vivo.
Series [26] in a line: Clearance in Balb/c mouse plasma administered as iv dose. In kind it is ADME, organism-based.
The nature of series [27]: in vivo. The following applies: Sprague-Dawley, rat, iv.
Description: Volume of distribution in Sprague-Dawley rat administered as iv dose
Series [28] can be described thus: in vivo. The settings on record: Sprague-Dawley, rat, plasma, iv.
Description: Clearance in Sprague-Dawley rat plasma administered as iv dose
A short description of series [29]: in vivo. The following applies: Sprague-Dawley, rat, po.
Description: Half life in Sprague-Dawley rat administered as po dose
A short description of series [30]: in vivo. The settings on record: Sprague-Dawley, rat, po. This is another data set of the same source.
Description: Oral bioavailability in Sprague-Dawley rat

The compound `CN(C)Cc1nc(Nc2ccc(-c3cnc4cc(F)ccn34)c3c2C(=O)NC3)ccc1C1CCOCC1` registered an IC50 in [1] of 14 nM. Moreover, the EC50 in series [2] turned out to be 35.3 nM; in [3] it was 22.2 nM.
Consider `COc1cc(Nc2ccc3c(n2)CN(C)C32CCOCC2)c(C(N)=O)nc1-c1cccc2c1ncn2C(F)F`, for which the IC50 in series [4] is less than 0.51 nM; in series [5], 322 nM. Also, the EC50 in series [6] is 102 nM.
Consider `CN1Cc2nc(Nc3cc(C4CC4)c(-c4cccc5c4ncn5C)nc3C(N)=O)ccc2C12CCN(C1COC1)CC2`, for which the figures for the clearance in [7], in [17] and in series [20] were 14.7 mL/min/kg, 19.8 mL/min/kg and 13.2 mL/min/kg, respectively. The values for the AUC/dose in series [8], in [12] and in series [16] were 4502 ng·h/mL, 308.2 ng·h/mL and 289.2 ng·h/mL, respectively. The Vd in series [9] turned out to be 6 L/kg; in series [14] it was 1.08 L/kg; in series [19] it was 2.25 L/kg. Further, the bioavailability came to 54.7% in [10], 26.3% in series [15] and 24.6% in series [21]. Moreover, the half-life in [11] was 2.61 h; in series [13], 4.33 h; in series [18], 6.06 h. Besides, the IC50 in series [4] was less than 0.51 nM; in [5], 114 nM. The EC50 in series [6] worked out at 32.7 nM.
For `COc1cc(Nc2ccc3c(n2)CN(C)C32CCCC2)c(C(N)=O)nc1-c1cccc2c1ncn2C`, the IC50 was less than 0.51 nM in series [4] and 162 nM in [5]. Also, in series [6], the EC50 worked out at 149 nM.
Consider `CN1Cc2nc(Nc3cc(OC(F)F)c(-c4cccc5c4ncn5C)nc3C(N)=O)ccc2C12CCOCC2`, for which the IC50 in [4] was less than 0.51 nM; in series [5] it was 153 nM. In series [6], the EC50 is 54.9 nM.
As to `CN1Cc2nc(Nc3ccc(C4=CCCC(NC(=O)c5ccccc5)C4)nc3C(N)=O)ccc2C12CCOCC2` (stereo unspecified), the half-life in series [22] was 0.93 h. In addition, the IC50 in series [4] stood at 0.64 nM; in series [5], 28.4 nM. The compound further had a bioavailability in series [23] of 38.6%. Moreover, the AUC/dose in [24] came to 273.3 ng·h/mL. In series [25], this compound displayed a Vd of 1.08 L/kg. The clearance in series [26] turned out to be 23.7 mL/min/kg.
With `COc1cc(Nc2ccc3c(n2)CN(C)C32CCOCC2)c(C(N)=O)nc1-c1cncc2c1ncn2C`, the Vd in series [27] turned out to be 1.75 L/kg. In addition, in series [28], the clearance was determined as 32.6 mL/min/kg. The compound further showed a half-life in [29] of 1.22 h. Moreover, the IC50 was less than 0.51 nM in [4] and 241 nM in series [5]. This compound returned a bioavailability in series [30] of 24.3%. For the same compound, the EC50 in [6] worked out at 10 nM.
`CCN1Cc2nc(Nc3cc(OC)c(-c4cccc5c4ncn5C)nc3C(N)=O)ccc2C12CCOCC2`: the IC50 in [4] is less than 0.51 nM; in [5], 239 nM. Besides, the concentration giving a half-maximal response (EC50) in [6] is 168 nM.
For the compound `COc1cc(Nc2ccc3c(n2)CN(C)C32CCOCC2)c(C(N)=O)nc1-c1ccnc2c1ccn2C`, the results for the IC50 in series [4] and in [5] were less than 0.51 nM and 27 nM, respectively.
On the same counts, the results for `COc1cc(Nc2ccc3c(n2)CN(C)C32CCOCC2)c(C(N)=O)nc1-c1cncc2c1ccn2C` are less than 0.51 nM and 95 nM.
